Holding throughout (format): functional
The test system of test [1] is Acinetobacter baumannii. Nature of the test: Antimicrobial activity against Acinetobacter baumannii 3208 expressing multiple-antibiotic resistance gene AbaR5 by […] 2 system.
Test [2] has as its system Acinetobacter baumannii. Nature of the test: Antimicrobial activity against Acinetobacter baumannii 3208 expressing multiple-antibiotic resistance gene AbaR5 by […] 2 system in presence of beta-lactamase inhibitor Tazobactam.
The subject of test [3] is Acinetobacter baumannii. The experiment in a line: Antimicrobial activity against Acinetobacter baumannii 3208 expressing multiple-antibiotic resistance gene AbaR5 by […] 2 system in presence of beta-lactamase inhibitor clavulanic acid.

Values after ≈ are worked out from the molar mass of the structure shown.

What is called MIC is the lowest concentration that inhibits growth of the organism.

In the case of `NC[C@H]1O[C@H](O[C@H]2[C@H](O)[C@@H](O[C@H]3O[C@H](CO)[C@@H](O)[C@H](N)[C@H]3O)[C@H](N)C[C@@H]2N)[C@H](N)C[C@@H]1O` [TOBRAMYCIN], in test [1], the MIC was no more than 1 µg/mL.
The same measure, in the same setting: the same measure for GENTAMICIN: greater than 16 µg/mL.
Regarding `CCN1CCN(C(=O)N[C@@H](C(=O)N[C@@H]2C(=O)N3[C@@H]2SC(C)(C)[C@@H]3C(=O)O)c2ccccc2)C(=O)C1=O` [PIPERACILLIN], in test [2], the MIC was no more than 4 µg/mL.
Turning to `CC1(C)S[C@@H]2[C@H](NC(=O)[C@H](C(=O)O)c3ccsc3)C(=O)N2[C@H]1C(=O)O` [TICARCILLIN], the MIC in test [3] was 32 µg/mL.
`CO/N=C(\C(=O)N[C@@H]1C(=O)N2C(C(=O)[O-])=C(C[N+]3(C)CCCC3)CS[C@H]12)c1csc(N)n1` [CEFEPIME] yielded an MIC in test [1] of 16 µg/mL (≈ 33.3 µM).
On the same count and under the same terms, the same measure for `O=C(O)c1cn(C2CC2)c2cc(N3CCNCC3)c(F)cc2c1=O` [CIPROFLOXACIN]: no less than 4 µg/mL.
The same measure, in the same setting: the same measure for `C[C@@H](O)[C@H]1C(=O)N2C(C(=O)O)=C(S[C@@H]3CN[C@H](C(=O)N(C)C)C3)[C@H](C)[C@H]12` [MEROPENEM]: 0.5 µg/mL (≈ 1.3 µM).

These data come from ChEMBL document CHEMBL1649484, “AbaR5, a large multiple-antibiotic resistance region found in Acinetobacter baumannii” (2009).
